Measurements: patent US12234299B2, “Peptides for inducing bacteriocin synthesis and methods to identify and/or select and/or optimize the same” (SYNGULON S.A., priority 2018, dated 2025)

How the values were obtained:
[1] = test system: ScuR; assay: Mobility shift assay (EMSA) of promoter probes with purified ScuR and synthetic peptide; format: binding, Streptococcus salivarius; settings: ScuR 4 μM; peptide 2:2 dilutions from 20 μM; FIG. 10B
Description: All double-stranded DNA fragments (30 or 40 bp) were obtained from annealing of single-stranded Cy3-labelled (at 5′ end) and unlabeled oligonucleotides. Typically, a gel shift reaction (20 μl) was performed in a binding buffer (20 mM Tris-HCl pH 8.0, 150 mM NaCl, 1 mM EDTA, 1 mM DTT, 10% glycerol, 1 mg ml-1 BSA) and contained 150 ng labelled probe and […] StrepTag proteins. When necessary, […] of ComS peptides (unless otherwise stated) are added. The reaction is incubated at 37° C. for 10 min prior to loading of the samples on a native TBE 5% gel. The gel is next subjected to 80 V for approximately 1 h in TBE buffer. DNA complexes were detected by fluorescence on the Ettan DIGE Imager with bandpass excitation filters (nm): 540/25 (Cy3) or 635/30 (Cy5) and bandpass emission filters: 595/25 (Cy3) or 680/30 (Cy5) (GE Healthcare, Waukesha, WI).
The PCR-amplified scuR-StrepTag and gene sarF-StrepTag were cloned into the pBAD-comR-ST vector (see supplemental information). The ComR-StrepTag, ScuR-StrepTag and SarF-StrepTag recombinant proteins were overproduced in E. coli and purified as previously described (Fontaine et al., 2013) in standard native conditions on Strep-Tactin agarose beads (IBA).

[2] = test system: sptA promoter (PsptA), ScuR/SarF system; assay: Luciferase (luxAB) promoter activity of PsptA with exogenous synthetic peptides; format: cell-based, Streptococcus salivarius HSISS4; settings: for Maximal activity of PsptA exposed to sBI7 mutant peptides, low concentration: 0.001 μM (1 nM) peptide, FIG. 3C; for Maximal activity of PsptA exposed to sBI7 mutant peptides, high concentration: 1 μM peptide, FIG. 3E
Description: (§1) Overnight precultures were diluted at a final OD600 of 0.05. A volume of 300 μl of culture samples was incubated in the wells of a sterile covered white microplate with a transparent bottom (Greiner, Alphen a/d Rijn, The Netherlands) for 75 min at 37° C. and then supplemented with synthetic peptides (1 μM, except if otherwise stated) or DMSO, and xylose where required. Growth (OD600) and luciferase (Lux) activity (expressed in relative light units) was monitored at 10 min intervals during 24 h in a multi-wells plate reader (Hidex Sense, Hidex, Turku, Finland) as previously described (Fontaine et al., 2013).

[3] = test system: sptA promoter (PsptA); assay: PsptA-luxAB activity with xylose-induced intracellularly expressed peptides; format: cell-based, Streptococcus salivarius
From the text: (§2) To generate the two DNA libraries encoding randomized sequence of small peptides, we performed overlapping PCRs to graft fragments encompassing the follow features: (1) a 5′ recombination arm (for the ectopic tRNA^ser locus); (2) the xylR gene that codes for the xylose responsive regulator; (3) either Pxyl1 (library I) or Pxyl2 (library II) translationally-fused to a 12 codon long gene, for which the last 7 are randomized; (4) the spec gene; (5) a 3′ recombination arm (for the ectopic tRNA^ser locus). To obtain the randomized DNA stretch, we used a 78 nucleotide long primer degenerated on 21 contiguous positions. Next, we transformed these two libraries in strains containing the sptA promoter translationally-fused to the cat gene (chloramphenicol resistance) in which the associated spec gene was excised by the previously described cre-lox method. The initial background of these strains were either a comR-overexpressing (Pxyl1-comR) or a salivaricin-deprived (Δslv5) strain. We plated transformed cells on solid medium supplemented with xylose (either 0.1 or 1%), chloramphenicol ([…]) and spectinomycin ([…]) and grew overnight. We restreaked single colonies on fresh chloramphenicol and spectinomycin solid medium supplemented or not with xylose.
as §1

[4] = test system: sptA promoter (PsptA) fused to cat, ScuR/SarF; assay: Randomized peptide screen (PsptA-cat, chloramphenicol resistance on xylose); format: cell-based, Streptococcus salivarius; settings: xylose 0.1 or 1%; PsptA-cat reporter
From the text: as §2

[5] = test system: Candida species; settings: Shekh and Roy (2012); cited from earlier work
[6] = test system: fungal microbial organism; settings: literature; cited from earlier work
[7] = test system: bacteriocin gene promoters (salivaricin promoters); assay: Luciferase (luxAB) activity of bacteriocin gene (salivaricin) promoters; format: cell-based, Streptococcus salivarius HSISS4; settings: 1 μM; FIG. 7
Description: as §1

[8] = test system: pathogenic Gram-positive and Gram-negative bacteria; settings: Acuna et al. (2012); cited from earlier work

LAFWDSLG [Leu-Ala-Phe-Trp-Asp-Ser-Leu-Gly]
ScuR binding to PsptA probe [1]: more intense
induction of the sptA promoter in vivo ([2]; 1 μM, FIG. 10A): able to induce the sptA promoter in vivo

LAFWDSLGLLL [LAFWDSLG with a triple leucine extension at the C-terminus (precursor peptide)]
ScuR binding to PsptA probe [1]: requires extreme concentration
induction of the sptA promoter in vivo ([2]; 1 μM, FIG. 10A): able to induce the sptA promoter in vivo
PsptA induction of the longer peptide relative to the shorter one ([2]; 1 μM, induction magnitude comparable to sBI7, FIG. 10A): much more active at 1 μM concentration than the shorter one

MIAILPFWLILG [BI7, genome-encoded screen peptide]
xylose-driven PsptA activity in comR or sarF deletion backgrounds ([3]; 0.1% xylose, FIG. 2D): neither comR nor sarF deletion has a dramatic effect
xylose-driven PsptA activity in scuR deletion background ([3]; 0.1% xylose, FIG. 2D): annihilates both xylose induction and basal leaky expression

MIAILRPH [BM1, irrelevant genome-encoded peptide, negative control clone, reference compound]
potentiation of PsptA-luxAB promoter activity by xylose addition ([3]; xylose 0.1% or 1% vs mock, FIG. 2B): no effect
growth on chloramphenicol with vs without xylose [4]: xylose-independent growth

WLPPAGLLGRCGRWFRPWLLWLQ SGAQY KWLGNLFGLGPK (WLPPAGLLGRCGRWFRPWLLWLQSGAQYKWLGNLFGLGPK; Enterococcus faecalis peptide)
neutralizing activity against Candida species [5]: neutralizing activity against Candida species

botrycidin AJ1316
antifungal activities [6]: antifungal activities

sBI7^G→A: sBI7 variant, C-terminal glycine substituted by alanine (LPFWLILA)
Maximal activity of salivaricin (bacteriocin gene) promoters exposed to mutant peptides [7]: low to high activation disability
Maximal activity of PsptA exposed to sBI7 mutant peptides, low concentration [2]: decreases the PsptA response
Maximal activity of PsptA exposed to sBI7 mutant peptides, high concentration [2]: activate Pcat at a similar range than the WT sBI7 peptide

sBI7^W→A: sBI7 variant, ultra-conserved tryptophan substituted by alanine (LPFALILG)
Maximal activity of salivaricin (bacteriocin gene) promoters exposed to mutant peptides [7]: total inefficacy
Maximal activity of PsptA exposed to sBI7 mutant peptides, low concentration [2]: neither alanine (sBI7^W→A) nor phenylalanine (sBI7^W→F) variants sustains luciferase transcription

sBI7^W→F: sBI7 variant, ultra-conserved tryptophan substituted by phenylalanine (LPFFLILG)
Maximal activity of salivaricin (bacteriocin gene) promoters exposed to mutant peptides [7]: low to high activation disability
Maximal activity of PsptA exposed to sBI7 mutant peptides, low concentration [2]: neither alanine (sBI7^W→A) nor phenylalanine (sBI7^W→F) variants sustains luciferase transcription
Maximal activity of PsptA exposed to sBI7 mutant peptides, high concentration [2]: activate Pcat at a similar range than the WT sBI7 peptide

B1: Ent35-MccV: hybrid bacteriocin: N-terminal glycine, Enterocin CRL35, a linker comprising three glycines, and a C-terminal Microcin V (protein)
chain: GKYYGNGVSCNKKGCSVDWGRAIGIIGNNSAANLATGGAAGWKSGGGASGRDIAMAIGTLSGQFVAGGIGAAAGGVAGGAIYDYASTHKPNPAMSPSGLGGTIKQKPEGIPSEAWNYAAGRLCNWSPNNLSDVCL
modifications: Hybrid bacteriocin Ent35-MccV
notes: hybrid bacteriocin: N-terminal glycine, Enterocin CRL35, a linker comprising three glycines, and a C-terminal Microcin V
antimicrobial activity [8]: displays antimicrobial activity against pathogenic Gram-positive and Gram-negative bacteria
